These results are taken from US12509444B2, “Compounds and methods for CD73 modulation and indications therefor” (Plexxikon Inc., priority 2019, dated 2025).

Experiment [1] addresses T1, Human CD73 (amino acid residues 27-549) (Homo sapiens, UniProt P21589).
T1 construct: Human CD73 (amino acid residues 27-549); His tag (N); made in house; host or cells: E. coli
T1 sequence (P21589 27-549): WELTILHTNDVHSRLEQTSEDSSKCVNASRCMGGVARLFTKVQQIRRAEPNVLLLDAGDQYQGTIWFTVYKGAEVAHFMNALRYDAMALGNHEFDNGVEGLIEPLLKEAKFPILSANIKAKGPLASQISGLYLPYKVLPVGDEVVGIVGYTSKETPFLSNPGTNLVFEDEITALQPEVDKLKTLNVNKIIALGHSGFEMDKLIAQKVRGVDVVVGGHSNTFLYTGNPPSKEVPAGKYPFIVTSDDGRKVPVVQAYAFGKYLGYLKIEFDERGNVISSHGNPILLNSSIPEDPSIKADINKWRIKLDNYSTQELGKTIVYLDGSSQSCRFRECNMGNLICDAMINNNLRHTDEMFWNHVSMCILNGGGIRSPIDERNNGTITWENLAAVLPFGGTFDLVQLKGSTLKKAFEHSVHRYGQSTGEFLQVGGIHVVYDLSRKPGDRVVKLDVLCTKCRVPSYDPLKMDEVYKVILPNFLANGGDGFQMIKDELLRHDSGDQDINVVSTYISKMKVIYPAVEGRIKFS
Kind of experiment: CD73 enzymatic assay (luciferase-based indirect assay, CellTiter-Glo). Type of experiment: biochemical. The conditions noted are these: 0.4 nM CD73, 150 μM AMP, 1 hour at room temperature. The essentials: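 Residual AMP inhibits luciferase, so luminescence reports CD73 turnover; read with CellTiter-Glo 2.0 plus 1 μM final ATP, 30 min. Reaction used 0.4 nM N-His CD73 (27-549, E. coli), 150 μM AMP, HEPES pH 7.4 with Tween 20, 1 h at room temperature. IC50 fitted by nonlinear regression.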
(Cellular ATP, detected with luciferase, serves as a proxy for viable cell number.)

For a further experiment, the target named is T2, human CD73 (Homo sapiens, UniProt P21589).
T2 construct: expressed in transfected cells
T2 sequence (P21589 27-549): T1 sequence (P21589 27-549)
Kind of experiment: Inhibitor activity against CD73 in cell based assay (CD73 expressing CHO-K1 cells). The conditions noted are these: CHO-K1 cells expressing human CD73, 150 μM AMP, 4 hours of incubation; read-out: CHO-K1 CELL VARIANT: CD73 IC50. The essentials: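 Residual supernatant AMP was quantified via CellTiter-Glo luminescence (1 μM ATP added, 30 min, room temperature) after a 4 h exposure of human CD73-expressing CHO-K1 cells to 150 μM AMP plus compound, top final 10 μM, 8 points. IC50 came from nonlinear regression of percent inhibition.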

With `O=C(NC1CC1)N[C@H]1CC[C@H](NC(=O)O[C@@H]2CCN(c3cn[nH]c(=O)c3Cl)C2)CC1` [P-0271, (R)-1-(5-chloro-6-oxo-1,6-dihydropyridazin-4-yl)pyrrolidin-3-yl ((1r,4R)-4-(3-cyclopropylureido)cyclohexyl) carbamate], the concentration for half-maximal inhibition (IC50) (in experiment [1]; on human CD73) was 0.001 to 10 µM in each case.

Take `O=C(Nc1ccc(Cl)cc1)N[C@H]1CC[C@H](NC(=O)O[C@@H]2CCN(c3cn[nH]c(=O)c3Cl)C2)CC1` [P-0272, (R)-1-(5-chloro-6-oxo-1,6-dihydropyridazin-4-yl)pyrrolidin-3-yl ((1r,4R)-4-(3-(4-chlorophenyl)ureido)cyclohexyl)carbamate]: the half-inhibitory concentration (IC50) (in experiment [1]; on human CD73) was 0.001 to 10 µM in each case.

As to `C[C@]1(O)CC[C@@H](NC(=O)O[C@@H]2CCN(c3cn[nH]c(=O)c3Cl)C2)CC1` [P-0273, (R)-1-(5-chloro-6-oxo-1,6-dihydropyridazin-4-yl)pyrrolidin-3-yl ((1s,4S)-4-hydroxy-4-methylcyclohexyl)carbamate], the IC50 (in experiment [1]; on human CD73) was 0.001 to 10 µM in each case.

For the molecule `O=C(N[C@H]1CC[C@@H](O)CC1)O[C@@H]1CCN(c2cn[nH]c(=O)c2Cl)C1` [P-0274, (R)-1-(5-chloro-6-oxo-1,6-dihydropyridazin-4-yl)pyrrolidin-3-yl ((1s,4S)-4-hydroxycyclohexyl)carbamate], the IC50 (in experiment [1]; at human CD73) was 0.001 to 10 µM throughout.

On to `N#C[C@H]1CC[C@H](NC(=O)O[C@@H]2CCN(c3cn[nH]c(=O)c3Cl)C2)CC1` [P-0275, (R)-1-(5-chloro-6-oxo-1,6-dihydropyridazin-4-yl)pyrrolidin-3-yl ((1r,4R)-4-cyanocyclohexyl)carbamate], for which the IC50 (in experiment [1]; at human CD73) was 0.001 to 10 µM in each case.

Turning to `O=C(NC1CCC2(CC1)CC2)O[C@@H]1CCN(c2cn[nH]c(=O)c2Cl)C1` [P-0276, (R)-1-(5-chloro-6-oxo-1,6-dihydropyridazin-4-yl)pyrrolidin-3-yl spiro[2.5]octan-6-ylcarbamate], the concentration for half-maximal inhibition (IC50) (in experiment [1]; at human CD73) was 0.001 to 10 µM each time.

On to `O=C(N[C@H]1CC[C@H](F)CC1)O[C@@H]1CCN(c2cn[nH]c(=O)c2Cl)C1` [P-0277, (R)-1-(5-chloro-6-oxo-1,6-dihydropyridazin-4-yl)pyrrolidin-3-yl ((1r,4R)-4-fluorocyclohexyl)carbamate], for which the half-maximal inhibitory concentration (IC50) (in experiment [1]; on human CD73) was 0.001 to 10 µM throughout.

Take `CC1(C)CCCC(NC(=O)O[C@@H]2CCN(c3cn[nH]c(=O)c3Cl)C2)C1` (stereo partly drawn) [P-0278, (R)-1-(5-chloro-6-oxo-1,6-dihydropyridazin-4-yl)pyrrolidin-3-yl (3,3-dimethylcyclohexyl)carbamate]: the 50% inhibitory concentration (IC50) (in experiment [1]; on human CD73) was 0.001 to 10 µM throughout.

On to `C[C@H]1CCCC[C@H]1NC(=O)O[C@@H]1CCN(c2cn[nH]c(=O)c2Cl)C1` [P-0279, (R)-1-(5-chloro-6-oxo-1,6-dihydropyridazin-4-yl)pyrrolidin-3-yl ((1R,2S)-2-methylcyclohexyl)carbamate], for which the IC50 (in experiment [1]; on human CD73) was 0.001 to 10 µM each time.

Turning to `O=C1CC(NC(=O)O[C@@H]2CCN(c3cn[nH]c(=O)c3Cl)C2)CCN1` (stereo partly drawn) [P-0280, (R)-1-(5-chloro-6-oxo-1,6-dihydropyridazin-4-yl)pyrrolidin-3-yl (2-oxopiperidin-4-yl)carbamate], the 50% inhibitory concentration (IC50) (in experiment [1]; at human CD73) was 0.001 to 10 µM throughout.

Take `CN1CCC(NC(=O)O[C@@H]2CCN(c3cn[nH]c(=O)c3Cl)C2)CC1=O` (stereo partly drawn) [P-0281, (R)-1-(5-chloro-6-oxo-1,6-dihydropyridazin-4-yl)pyrrolidin-3-yl (1-methyl-2-oxopiperidin-4-yl)carbamate]: the concentration for half-maximal inhibition (IC50) (in experiment [1]; at human CD73) was 0.001 to 10 µM in each case.

On to `O=C(O)Cn1ncc(N2CC[C@@H](OC(=O)NC3CCC(F)(F)CC3)C2)c(Cl)c1=O` [P-0282, (R)-2-(5-chloro-4-(3-(((4,4-difluorocyclohexyl)carbamoyl)oxy)pyrrolidin-1-yl)-6-oxopyridazin-1(6H)-yl)acetic acid], for which the concentration for half-maximal inhibition (IC50) – broadly, the concentration that inhibits the measured activity by half – lay in the range of 0.001 to 10 µM in experiment [1] and 10 to 100 µM on human CD73.

Turning to `O=C(O)Cn1ncc(N2CC[C@@H](OC(=O)NC3CCC(F)(F)CC3)C2)cc1=O` [P-0283, (R)-2-(4-(3-(((4,4-difluorocyclohexyl)carbamoyl)oxy)pyrrolidin-1-yl)-6-oxopyridazin-1(6H)-yl)acetic acid], the concentration for half-maximal inhibition (IC50) in experiment [1] lay in the range of 100 to 1000 µM; on human CD73 it was 10 to 100 µM.

Consider `O=C(NC1CCC(F)(F)CC1)O[C@@H]1CCN(c2cnn(CC(O)C(F)(F)F)c(=O)c2Cl)C1` (stereo partly drawn) [P-0284, (3R)-1-(5-chloro-6-oxo-1-(3,3,3-trifluoro-2-hydroxypropyl)-1,6-dihydropyridazin-4-yl)pyrrolidin-3-yl (4,4-difluorocyclohexyl)carbamate], for which the IC50 (in experiment [1]; at human CD73) was 0.001 to 10 µM each time.

Turning to `NC(=O)Cn1ncc(N2CC[C@@H](OC(=O)NC3CCC(F)(F)CC3)C2)c(Cl)c1=O` [P-0285, (R)-1-(1-(2-amino-2-oxoethyl)-5-chloro-6-oxo-1,6-dihydropyridazin-4-yl)pyrrolidin-3-yl (4,4-difluorocyclohexyl)carbamate], the IC50 was 0.001 to 10 µM in experiment [1] and 10 to 100 µM at human CD73.

As to `N#CCn1ncc(N2CC[C@@H](OC(=O)NC3CCC(F)(F)CC3)C2)c(Cl)c1=O` [P-0286, (R)-1-(5-chloro-1-(cyanomethyl)-6-oxo-1,6-dihydropyridazin-4-yl)pyrrolidin-3-yl (4,4-difluorocyclohexyl)carbamate], the IC50 lay within 0.001 to 10 µM in experiment [1] and 10 to 100 µM on human CD73.

In the case of `O=C(NC1CCC(F)(F)CC1)O[C@@H]1CCN(c2cnn(CCO)c(=O)c2Cl)C1` [P-0287, (R)-1-(5-chloro-1-(2-hydroxyethyl)-6-oxo-1,6-dihydropyridazin-4-yl)pyrrolidin-3-yl (4,4-difluorocyclohexyl)carbamate], the 50% inhibitory concentration (IC50) (in experiment [1]; on human CD73) was 0.001 to 10 µM each time.

On to `C[C@@H]1CCCC[C@@H]1NC(=O)O[C@@H]1CCN(c2cn[nH]c(=O)c2Cl)C1` [P-0288, (R)-1-(5-chloro-6-oxo-1,6-dihydropyridazin-4-yl)pyrrolidin-3-yl ((1S,2R)-2-methylcyclohexyl)carbamate], for which the IC50 (in experiment [1]; on human CD73) was 0.001 to 10 µM in each case.

On to `Cn1ncc(N2CC[C@@H](OC(=O)N[C@H]3CC[C@H](NS(=O)(=O)c4ccc(F)cc4F)CC3)C2)c(Cl)c1=O` [P-0289, (R)-1-(5-chloro-1-methyl-6-oxo-1,6-dihydropyridazin-4-yl)pyrrolidin-3-yl ((1r,4R)-4-((2,4-difluorophenyl)sulfonamido)cyclohexyl)carbamate], for which the half-inhibitory concentration (IC50) (in experiment [1]; at human CD73) was 0.001 to 10 µM each time.

As to `O=C(N[C@H]1CC[C@@H](NC(=O)C2CCC2)CC1)O[C@@H]1CCN(c2cn[nH]c(=O)c2Cl)C1` [P-0290, (R)-1-(5-chloro-6-oxo-1,6-dihydropyridazin-4-yl)pyrrolidin-3-yl ((1s,4S)-4-(cyclobutanecarboxamido)cyclohexyl)carbamate], the half-maximal inhibitory concentration (IC50) (in experiment [1]; at human CD73) was 0.001 to 10 µM throughout.

`O=C(N[C@H]1CC[C@H](NS(=O)(=O)C2CCC2)CC1)O[C@@H]1CCN(c2cn[nH]c(=O)c2Cl)C1` [P-0291, (R)-1-(5-chloro-6-oxo-1,6-dihydropyridazin-4-yl)pyrrolidin-3-yl ((1r,4R)-4-(cyclobutanesulfonamido)cyclohexyl)carbamate]: the IC50 (in experiment [1]; on human CD73) was 0.001 to 10 µM throughout.

Turning to `O=C(N[C@H]1CC[C@H](NS(=O)(=O)c2ccc(Cl)cc2)CC1)O[C@@H]1CCN(c2cn[nH]c(=O)c2Cl)C1` [P-0292, (R)-1-(5-chloro-6-oxo-1,6-dihydropyridazin-4-yl)pyrrolidin-3-yl ((1r,4R)-4-((4-chlorophenyl)sulfonamido)cyclohexyl)carbamate], the IC50 (in experiment [1]; at human CD73) was 0.001 to 10 µM each time.

`Cc1ccc(S(=O)(=O)N[C@H]2CC[C@H](NC(=O)O[C@@H]3CCN(c4cn[nH]c(=O)c4Cl)C3)CC2)cc1` [P-0293, (R)-1-(5-chloro-6-oxo-1,6-dihydropyridazin-4-yl)pyrrolidin-3-yl ((1r,4R)-4-((4-methylphenyl)sulfonamido)cyclohexyl)carbamate]: the IC50 (in experiment [1]; on human CD73) was 0.001 to 10 µM throughout.

For `O=C(N[C@H]1CC[C@H](NS(=O)(=O)c2cccc(F)c2)CC1)O[C@@H]1CCN(c2cn[nH]c(=O)c2Cl)C1` [P-0294, (R)-1-(5-chloro-6-oxo-1,6-dihydropyridazin-4-yl)pyrrolidin-3-yl ((1r,4R)-4-((3-fluorophenyl)sulfonamido)cyclohexyl)carbamate], the half-maximal inhibitory concentration (IC50) (in experiment [1]; on human CD73) was 0.001 to 10 µM each time.
